Laboratory results published in publication PMC7251241 (EBioMedicine, 2020).

T1: SapC (saposin C) (Homo sapiens, UniProt P07602)
T1 sequence (P07602 311-390 limits assumed): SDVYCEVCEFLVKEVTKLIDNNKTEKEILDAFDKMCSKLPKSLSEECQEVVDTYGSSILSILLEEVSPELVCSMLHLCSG

T2: acid β-glucosidase (GCase), Velaglucerase alfa (human, UniProt P04062 40-536, mannosyl-terminated oligosaccharide chains)
T2 sequence (looked up): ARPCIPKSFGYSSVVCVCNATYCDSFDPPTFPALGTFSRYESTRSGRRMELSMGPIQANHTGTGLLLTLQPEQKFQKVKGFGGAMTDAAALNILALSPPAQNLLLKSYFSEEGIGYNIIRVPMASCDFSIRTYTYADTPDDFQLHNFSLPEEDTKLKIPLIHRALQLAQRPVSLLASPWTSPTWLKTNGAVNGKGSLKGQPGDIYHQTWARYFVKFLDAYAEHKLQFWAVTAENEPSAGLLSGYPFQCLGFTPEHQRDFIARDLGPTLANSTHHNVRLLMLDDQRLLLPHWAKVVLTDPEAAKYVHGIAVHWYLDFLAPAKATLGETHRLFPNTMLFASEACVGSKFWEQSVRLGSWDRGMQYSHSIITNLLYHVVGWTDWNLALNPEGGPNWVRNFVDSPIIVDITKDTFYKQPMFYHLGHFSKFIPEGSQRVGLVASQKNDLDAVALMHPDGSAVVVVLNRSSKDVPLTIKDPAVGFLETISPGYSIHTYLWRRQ


How the values were obtained:
SapC (saposin C) = biological target: T1, SapC (saposin C); assay: microscale thermophoresis; type: binding
[1] = biological target: T2, acid β-glucosidase (GCase), …; assay: MST

Kd [1]	Molecule	Kd (SapC (saposin C))
–	CCCCCCCC/C=C\CCCCCCCC(=O)OC[C@H](COP(=O)(O)OC[C@H](N)C(=O)O)OC(=O)CCCCCCC/C=C\CCCCCCCC [DOPS]	13.5 ± 1.65 nM
29.4 ± 1.91 nM	saposin C (SapC) (natural protein, UniProt P07602 311-390, looked up) SDVYCEVCEFLVKEVTKLIDNNKTEKEILDAFDKMCSKLPKSLSEECQEVVDTYGSSILSILLEEVSPELVCSMLHLCSG	–
